Experimental data reported in ChEMBL document CHEMBL4184242, “Synthesis and antibacterial studies of teixobactin analogues with non-isostere substitution of enduracididine” (2018).
≈ marks a conversion by molar mass, not a printed value.

Columns and labels:
[1] = system: Staphylococcus aureus; experiment: Antibacterial activity against methicillin-resistant Staphylococcus aureus isolate SA1114 by CLSI M100-S17 protocol based broth dilution method; type: functional
[2] = system: Staphylococcus aureus; experiment: Antibacterial activity against methicillin-susceptible Staphylococcus aureus ATCC 29213 by CLSI M100-S17 protocol based broth dilution method; type: functional

Row | Compound | MIC [1] [µg/mL] | MIC [2] [µg/mL]
1 | CC[C@@H](C)[C@@H](NC(=O)[C@@H](CCC(N)=O)NC(=O)[C@H](CO)NC(=O)[C@@H](NC(=O)[C@@H](Cc1ccccc1)NC)[C@@H](C)CC)C(=O)N[C@H](C(=O)N[C@@H](CO)C(=O)N[C@H]1C(=O)N[C@@H](C)C(=O)N[C@@H](Cc2ccccc2)C(=O)N[C@@H]([C@@H](C)CC)C(=O)O[C@H]1C)[C@@H](C)CC | 4 (≈ 3.24 µM) | 1 (≈ 0.809 µM)
2 | CC[C@@H](C)[C@@H](NC(=O)[C@@H](CCC(N)=O)NC(=O)[C@H](CO)NC(=O)[C@@H](NC(=O)[C@@H](Cc1ccccc1)NC)[C@@H](C)CC)C(=O)N[C@H](C(=O)N[C@@H](CO)C(=O)N[C@H]1C(=O)N[C@@H](C)C(=O)N[C@@H](C)C(=O)N[C@@H]([C@@H](C)CC)C(=O)O[C@H]1C)[C@@H](C)CC | 8 (≈ 6.9 µM) | 2 (≈ 1.73 µM)
3 | CC[C@@H](C)[C@@H](NC(=O)[C@@H](CCC(N)=O)NC(=O)[C@H](CO)NC(=O)[C@@H](NC(=O)[C@@H](Cc1ccccc1)NC)[C@@H](C)CC)C(=O)N[C@H](C(=O)N[C@@H](CO)C(=O)N[C@H]1C(=O)N[C@@H](C)C(=O)N[C@@H](C(C)C)C(=O)N[C@@H]([C@@H](C)CC)C(=O)O[C@H]1C)[C@@H](C)CC | 2 (≈ 1.68 µM) | 0.5 (≈ 0.421 µM)
4 | CC[C@@H](C)[C@@H](NC(=O)[C@@H](CCC(N)=O)NC(=O)[C@H](CO)NC(=O)[C@@H](NC(=O)[C@@H](Cc1ccccc1)NC)[C@@H](C)CC)C(=O)N[C@H](C(=O)N[C@@H](CO)C(=O)N[C@H]1C(=O)N[C@@H](C)C(=O)N[C@@H](CC(C)C)C(=O)N[C@@H]([C@@H](C)CC)C(=O)O[C@H]1C)[C@@H](C)CC | 2 (≈ 1.66 µM) | 0.5 (≈ 0.416 µM)
5 | CC[C@@H](C)[C@@H](NC(=O)[C@@H](CCC(N)=O)NC(=O)[C@H](CO)NC(=O)[C@@H](NC(=O)[C@@H](Cc1ccccc1)NC)[C@@H](C)CC)C(=O)N[C@H](C(=O)N[C@@H](CO)C(=O)N[C@H]1C(=O)N[C@@H](C)C(=O)N[C@@H](CC(N)=O)C(=O)N[C@@H]([C@@H](C)CC)C(=O)O[C@H]1C)[C@@H](C)CC | 16 (≈ 13.3 µM) | 8 (≈ 6.65 µM)
6 | CC[C@@H](C)[C@@H](NC(=O)[C@@H](CCC(N)=O)NC(=O)[C@H](CO)NC(=O)[C@@H](NC(=O)[C@@H](Cc1ccccc1)NC)[C@@H](C)CC)C(=O)N[C@H](C(=O)N[C@@H](CO)C(=O)N[C@H]1C(=O)N[C@@H](C)C(=O)N[C@@H](Cc2ccc(O)c([N+](=O)[O-])c2)C(=O)N[C@@H]([C@@H](C)CC)C(=O)O[C@H]1C)[C@@H](C)CC | 4 (≈ 3.09 µM) | 1 (≈ 0.771 µM)
7 | CC[C@@H](C)[C@@H](NC(=O)[C@@H](CCC(N)=O)NC(=O)[C@H](CO)NC(=O)[C@@H](NC(=O)[C@@H](Cc1ccccc1)NC)[C@@H](C)CC)C(=O)N[C@H](C(=O)N[C@@H](CO)C(=O)N[C@H]1C(=O)N[C@@H](C)C(=O)N[C@@H]([C@@H](C)CC)C(=O)N[C@@H]([C@@H](C)CC)C(=O)O[C@H]1C)[C@@H](C)CC | 1 (≈ 0.832 µM) | 0.5 (≈ 0.416 µM)
8 | CC[C@@H](C)[C@@H](NC(=O)[C@@H](CCC(N)=O)NC(=O)[C@H](CO)NC(=O)[C@@H](NC(=O)[C@@H](Cc1ccccc1)NC)[C@@H](C)CC)C(=O)N[C@H](C(=O)N[C@@H](CO)C(=O)N[C@H]1C(=O)N[C@@H](C)C(=O)NCC(=O)N[C@@H]([C@@H](C)CC)C(=O)O[C@H]1C)[C@@H](C)CC | 8 to 16 (≈ 6.98 to 14 µM) | 2 (≈ 1.75 µM)
9 | CC[C@@H](C)[C@@H](NC(=O)[C@@H](CCC(N)=O)NC(=O)[C@H](CO)NC(=O)[C@@H](NC(=O)[C@@H](Cc1ccccc1)NC)[C@@H](C)CC)C(=O)N[C@H](C(=O)N[C@@H](CO)C(=O)N[C@H]1C(=O)N[C@@H](C)C(=O)N[C@@H](Cc2ccc(O)cc2)C(=O)N[C@@H]([C@@H](C)CC)C(=O)O[C@H]1C)[C@@H](C)CC | 8 (≈ 6.39 µM) | 2 (≈ 1.6 µM)
10 | CC[C@@H](C)[C@@H](NC(=O)[C@@H](CCC(N)=O)NC(=O)[C@H](CO)NC(=O)[C@@H](NC(=O)[C@@H](Cc1ccccc1)NC)[C@@H](C)CC)C(=O)N[C@H](C(=O)N[C@@H](CO)C(=O)N[C@H]1C(=O)N[C@@H](C)C(=O)N[C@@H](Cc2ccc(F)cc2)C(=O)N[C@@H]([C@@H](C)CC)C(=O)O[C@H]1C)[C@@H](C)CC | 4 (≈ 3.19 µM) | 0.5 (≈ 0.399 µM)
11 | CC[C@@H](C)[C@@H](NC(=O)[C@@H](CCC(N)=O)NC(=O)[C@H](CO)NC(=O)[C@@H](NC(=O)[C@@H](Cc1ccccc1)NC)[C@@H](C)CC)C(=O)N[C@H](C(=O)N[C@@H](CO)C(=O)N[C@H]1C(=O)N[C@@H](C)C(=O)N[C@@H](CCSC)C(=O)N[C@@H]([C@@H](C)CC)C(=O)O[C@H]1C)[C@@H](C)CC | 1 (≈ 0.82 µM) | 0.25 (≈ 0.205 µM)
12 | CC[C@@H](C)[C@@H](NC(=O)[C@@H](CCC(N)=O)NC(=O)[C@H](CO)NC(=O)[C@@H](NC(=O)[C@@H](Cc1ccccc1)NC)[C@@H](C)CC)C(=O)N[C@H](C(=O)N[C@@H](CO)C(=O)N[C@H]1C(=O)N[C@@H](C)C(=O)N[C@@H]([C@@H](C)O)C(=O)N[C@@H]([C@@H](C)CC)C(=O)O[C@H]1C)[C@@H](C)CC | 16 (≈ 13.5 µM) | 8 (≈ 6.73 µM)
13 | CC[C@@H](C)[C@@H](NC(=O)[C@@H](CCC(N)=O)NC(=O)[C@H](CO)NC(=O)[C@@H](NC(=O)[C@@H](Cc1ccccc1)NC)[C@@H](C)CC)C(=O)N[C@H](C(=O)N[C@@H](CO)C(=O)N[C@H]1C(=O)N[C@@H](C)C(=O)N[C@@H](Cc2ccc([N+](=O)[O-])cc2)C(=O)N[C@@H]([C@@H](C)CC)C(=O)O[C@H]1C)[C@@H](C)CC | 4 (≈ 3.12 µM) | 0.5 (≈ 0.39 µM)
14 | CC[C@@H]1NC(=O)[C@H](C)NC(=O)[C@H](NC(=O)[C@H](CO)NC(=O)[C@@H](NC(=O)[C@H](NC(=O)[C@@H](CCC(N)=O)NC(=O)[C@H](CO)NC(=O)[C@@H](NC(=O)[C@@H](Cc2ccccc2)NC)[C@@H](C)CC)[C@H](C)CC)[C@@H](C)CC)[C@H](C)OC(=O)[C@H]([C@@H](C)CC)NC1=O | 4 (≈ 3.41 µM) | 1 (≈ 0.852 µM)
15 | CC[C@@H](C)[C@@H](NC(=O)[C@@H](CCC(N)=O)NC(=O)[C@H](CO)NC(=O)[C@@H](NC(=O)[C@@H](Cc1ccccc1)NC)[C@@H](C)CC)C(=O)N[C@H](C(=O)N[C@@H](CO)C(=O)N[C@H]1C(=O)N[C@@H](C)C(=O)N[C@@H](Cc2ccc(Cl)cc2)C(=O)N[C@@H]([C@@H](C)CC)C(=O)O[C@H]1C)[C@@H](C)CC | 4 (≈ 3.15 µM) | 1 (≈ 0.787 µM)
16 | CC[C@@H](C)[C@@H](NC(=O)[C@@H](CCC(N)=O)NC(=O)[C@H](CO)NC(=O)[C@@H](NC(=O)[C@@H](Cc1ccccc1)NC)[C@@H](C)CC)C(=O)N[C@H](C(=O)N[C@@H](CO)C(=O)N[C@H]1C(=O)N[C@@H](C)C(=O)N[C@@H](CCC(N)=O)C(=O)N[C@@H]([C@@H](C)CC)C(=O)O[C@H]1C)[C@@H](C)CC | 16 (≈ 13.2 µM) | 16 (≈ 13.2 µM)
17 | CC[C@@H](C)[C@@H](NC(=O)[C@@H](CCC(N)=O)NC(=O)[C@H](CO)NC(=O)[C@@H](NC(=O)[C@@H](Cc1ccccc1)NC)[C@@H](C)CC)C(=O)N[C@H](C(=O)N[C@@H](CO)C(=O)N[C@H]1C(=O)N[C@@H](C)C(=O)N[C@@H](CC(=O)O)C(=O)N[C@@H]([C@@H](C)CC)C(=O)O[C@H]1C)[C@@H](C)CC | ≥ 32 | ≥ 32
18 | CC[C@@H](C)[C@@H](NC(=O)[C@@H](CCC(N)=O)NC(=O)[C@H](CO)NC(=O)[C@@H](NC(=O)[C@@H](Cc1ccccc1)NC)[C@@H](C)CC)C(=O)N[C@H](C(=O)N[C@@H](CO)C(=O)N[C@H]1C(=O)N[C@@H](C)C(=O)N2CCC[C@H]2C(=O)N[C@@H]([C@@H](C)CC)C(=O)O[C@H]1C)[C@@H](C)CC | ≥ 32 | ≥ 32
19 | CC[C@@H](C)[C@@H](NC(=O)[C@@H](CCC(N)=O)NC(=O)[C@H](CO)NC(=O)[C@@H](NC(=O)[C@@H](Cc1ccccc1)NC)[C@@H](C)CC)C(=O)N[C@H](C(=O)N[C@@H](CO)C(=O)N[C@H]1C(=O)N[C@@H](C)C(=O)N[C@@H](Cc2ccc(C)cc2)C(=O)N[C@@H]([C@@H](C)CC)C(=O)O[C@H]1C)[C@@H](C)CC | ≥ 32 | 1 (≈ 0.8 µM)
20 | CC[C@@H](C)[C@@H](NC(=O)[C@@H](CCC(N)=O)NC(=O)[C@H](CO)NC(=O)[C@@H](NC(=O)[C@@H](Cc1ccccc1)NC)[C@@H](C)CC)C(=O)N[C@H](C(=O)N[C@@H](CO)C(=O)N[C@H]1C(=O)N[C@@H](C)C(=O)N[C@@H](CCC(=O)O)C(=O)N[C@@H]([C@@H](C)CC)C(=O)O[C@H]1C)[C@@H](C)CC | ≥ 32 | ≥ 32
21 | CC[C@@H](C)[C@@H](NC(=O)[C@@H](CCC(N)=O)NC(=O)[C@H](CO)NC(=O)[C@@H](NC(=O)[C@@H](Cc1ccccc1)NC)[C@@H](C)CC)C(=O)N[C@H](C(=O)N[C@@H](CO)C(=O)N[C@H]1C(=O)N[C@@H](C)C(=O)N[C@@H](Cc2ccc(OC)cc2)C(=O)N[C@@H]([C@@H](C)CC)C(=O)O[C@H]1C)[C@@H](C)CC | ≥ 32 | 1 (≈ 0.79 µM)
22 | CC[C@@H](C)[C@@H](NC(=O)[C@@H](CCC(N)=O)NC(=O)[C@H](CO)NC(=O)[C@@H](NC(=O)[C@@H](Cc1ccccc1)NC)[C@@H](C)CC)C(=O)N[C@H](C(=O)N[C@@H](CO)C(=O)N[C@H]1C(=O)N[C@@H](C)C(=O)N[C@@H](CSC(C)(C)C)C(=O)N[C@@H]([C@@H](C)CC)C(=O)O[C@H]1C)[C@@H](C)CC | 4 (≈ 3.21 µM) | 2 (≈ 1.6 µM)
23 | CC[C@@H](C)[C@@H](NC(=O)[C@@H](CCC(N)=O)NC(=O)[C@H](CO)NC(=O)[C@@H](NC(=O)[C@@H](Cc1ccccc1)NC)[C@@H](C)CC)C(=O)N[C@H](C(=O)N[C@@H](CO)C(=O)N[C@H]1C(=O)N[C@@H](C)C(=O)N[C@@H](Cc2c[nH]c3ccccc23)C(=O)N[C@@H]([C@@H](C)CC)C(=O)O[C@H]1C)[C@@H](C)CC | 8 to 16 (≈ 6.28 to 12.6 µM) | 8 (≈ 6.28 µM)
24 | CC[C@@H](C)[C@@H](NC(=O)[C@@H](CCC(N)=O)NC(=O)[C@H](CO)NC(=O)[C@@H](NC(=O)[C@@H](Cc1ccccc1)NC)[C@@H](C)CC)C(=O)N[C@H](C(=O)N[C@@H](CO)C(=O)N[C@H]1C(=O)N[C@@H](C)C(=O)N[C@@H](CO)C(=O)N[C@@H]([C@@H](C)CC)C(=O)O[C@H]1C)[C@@H](C)CC | 16 (≈ 13.6 µM) | 16 (≈ 13.6 µM)
25 | CC[C@@H](C)[C@@H](NC(=O)[C@@H](CCC(N)=O)NC(=O)[C@H](CO)NC(=O)[C@@H](NC(=O)[C@@H](Cc1ccccc1)NC)[C@@H](C)CC)C(=O)N[C@H](C(=O)N[C@@H](CO)C(=O)N[C@H]1C(=O)N[C@@H](C)C(=O)N[C@@H](Cc2ccc(Br)cc2)C(=O)N[C@@H]([C@@H](C)CC)C(=O)O[C@H]1C)[C@@H](C)CC | ≥ 32 | 2 (≈ 1.52 µM)
